Source: US8039490B2, “Benzoyl-piperidine derivatives as dual modulators of the 5-HT2A and D3 receptors” (Hoffmann-La Roche Inc., priority 2006, dated 2011)

What was measured:
[1] = molecular target: T1, human D2 dopamine receptor (Homo sapiens, UniProt P14416); test: Radioligand binding, human D2 receptor ([3H]-spiperone); details: third value of the cell; membranes of transfected HEK-293 EBNA cells, 0.7 nM [3H]-spiperone; read-out: Ki(nM) D3/5HT2A/D2: D2
T1 construct: expressed in transfected cells; host or cells: HEK-293 EBNA cells (transient transfection), membrane preparation
Experimental: (§1) The cells were harvested 48 h post-transfection, washed three times with cold PBS and stored at −80° C. prior to use. The pellet was suspended in cold 50 mM Tris-HCl buffer containing 10 mM EDTA (pH 7.4) and homogenized with a Polytron (Kinematica AG, Basel, Switzerland) for 20-30 sec at 12.000 rpm. After centrifugation at 48.000×g for 30 min at 4° C., the pellet was resuspended in cold 10 mM Tris-HCl buffer containing 0.1 mM EDTA (pH 7.4), homogenized, and centrifuged as above. This pellet was further resuspended in a smaller volume of ice cold 10 mM Tris-HCl buffer containing 0.1 mM EDTA (pH 7.4) and homogenized with a Polytron for 20-30 sec at 12.000 rpm. The protein content of this homogenate was determined with the Bio-Rad (Bradford) Protein Assay (Biorad Laboratories GmbH, München, Germany) according to the instructions of the manufacturer using gamma globulin as the standard. This homogenate was stored at −80° C. in aliquots and thawed immediately prior to use.
(§2) Aliquots of membrane preparations were thawed at RT, resupended in assay buffer (D2, D3: 50 mM Tris-HCl, 120 mM NaCl, 5 mM MgCl2, 1 mM EDTA, 5 mM KCl, 1.5 mM CaCl2, pH=7.4; 5-HT2A: 50 mM Tris-HCl, 10 mM MgCl2, 1 mM EGTA, pH=7.4), homogenized with a Polytron for 20-30 sec at 12.000 rpm and adjusted to a final concentration of approximately 7.5 μg protein/well (D2, D3) and 15 μg protein/well (5-HT2A), respectively.
(§3) The binding affinity (Ki) of the compounds was determined using radioligand binding. […] The nonspecific binding was determined with equally composed reaction mixtures in the presence of 10 μM unlabelled spiperone. Per well 45 μl of Microscint 40 (Perkin Elmer, Schwerzenbach, Switzerland) was added, plates for sealed, shaken for 20 min and counted for 3 min on a Topcount Microplate Scintillation Counter (Canberra Packard SA, Zürich, Switzerland) with quenching correction.
(§4) The CPM value for each duplicate of a concentration of competing compound was averaged (y1), then the % specific binding was calculated according to the equation (((y1−non-specific)/(total binding-non-specific))×100). Graphs were plotted with the % specific binding using XLfit, a curve fitting program that iteratively plots the data using Levenburg Marquardt algorithm. The single site competition analysis equation used was y=A+((B−A)/(+((x/C)^D))), where y is the % specific binding, A is the minimum y, B is the maximum y, C is the IC50, x is the log10 of the concentration of the competing compound and D is the slope of the curve (the Hill Coefficient). […] The affinity constant (Ki) was calculated using the Cheng-Prusoff equation KI =(IC50/1+([L]/Kd), where [L] is the concentration of radioligand and Kd is the dissociation constant of the radioligand at the receptor as determined by the saturation isotherm.

[2] = molecular target: T2, human 5-HT2A serotonin receptor (Homo sapiens, UniProt P28223); test: Radioligand binding, human 5-HT2A receptor ([3H]-ketanserin); details: second value of the cell; membranes of transfected HEK-293 EBNA cells, 1.1 nM [3H]-ketanserin; read-out: Ki(nM) D3/5HT2A/D2: 5HT2A
T2 construct: expressed in transfected cells; host or cells: HEK-293 EBNA cells (transient transfection), membrane preparation
Experimental: as §1, §2, §3, §4

[3] = molecular target: T3, human D3 dopamine receptor (Homo sapiens, UniProt P35462); test: Radioligand binding, human D3 receptor ([3H]-spiperone); details: first value of the cell; membranes of transfected HEK-293 EBNA cells, 0.5 nM [3H]-spiperone; read-out: Ki(nM) D3/5HT2A/D2: D3
T3 construct: expressed in transfected cells; host or cells: HEK-293 EBNA cells (transient transfection), membrane preparation
Experimental: as §1, §2, §3, §4

T2 sequence (P28223 whole entry): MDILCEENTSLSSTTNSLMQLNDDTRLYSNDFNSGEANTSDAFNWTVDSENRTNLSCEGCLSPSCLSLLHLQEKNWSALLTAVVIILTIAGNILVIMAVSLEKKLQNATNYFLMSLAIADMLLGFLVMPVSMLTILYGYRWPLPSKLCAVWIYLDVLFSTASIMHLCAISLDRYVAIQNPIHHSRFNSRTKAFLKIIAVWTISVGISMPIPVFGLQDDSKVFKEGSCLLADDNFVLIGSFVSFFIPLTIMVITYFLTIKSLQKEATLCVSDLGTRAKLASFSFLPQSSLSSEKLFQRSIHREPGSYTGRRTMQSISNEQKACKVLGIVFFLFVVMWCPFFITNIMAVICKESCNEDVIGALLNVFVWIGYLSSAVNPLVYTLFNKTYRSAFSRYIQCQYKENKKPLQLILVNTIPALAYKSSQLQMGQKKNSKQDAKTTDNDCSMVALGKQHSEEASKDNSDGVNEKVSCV
T3 sequence (P35462 whole entry): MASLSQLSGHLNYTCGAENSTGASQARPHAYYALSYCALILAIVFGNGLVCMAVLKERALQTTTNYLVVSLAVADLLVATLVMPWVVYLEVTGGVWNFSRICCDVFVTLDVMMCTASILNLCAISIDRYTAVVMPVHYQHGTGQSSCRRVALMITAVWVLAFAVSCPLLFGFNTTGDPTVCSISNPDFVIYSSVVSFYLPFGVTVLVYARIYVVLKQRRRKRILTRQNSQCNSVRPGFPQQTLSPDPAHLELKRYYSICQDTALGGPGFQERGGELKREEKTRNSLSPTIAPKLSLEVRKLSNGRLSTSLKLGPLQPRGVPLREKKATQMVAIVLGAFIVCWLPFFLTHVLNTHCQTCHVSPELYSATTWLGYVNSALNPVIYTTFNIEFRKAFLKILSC
T1 sequence (P14416 whole entry): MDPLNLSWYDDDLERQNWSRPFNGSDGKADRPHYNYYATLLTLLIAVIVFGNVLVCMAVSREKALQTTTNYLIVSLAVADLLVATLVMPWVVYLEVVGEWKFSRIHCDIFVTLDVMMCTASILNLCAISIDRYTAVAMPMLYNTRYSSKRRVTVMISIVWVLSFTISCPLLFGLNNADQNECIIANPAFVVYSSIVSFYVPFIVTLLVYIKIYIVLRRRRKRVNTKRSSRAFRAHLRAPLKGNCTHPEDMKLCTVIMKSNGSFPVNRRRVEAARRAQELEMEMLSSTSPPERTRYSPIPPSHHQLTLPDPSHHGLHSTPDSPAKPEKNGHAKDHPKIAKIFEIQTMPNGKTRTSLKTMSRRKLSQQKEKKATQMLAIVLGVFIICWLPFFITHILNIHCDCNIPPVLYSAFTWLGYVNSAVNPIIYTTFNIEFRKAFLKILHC

Compound	Ki [1] [nM]	Ki [2] [nM]	Ki [3] [nM]
CN(C(=O)N[C@H]1CC[C@H](CCN2CCC(C(=O)c3ccc(F)cc3)CC2)CC1)c1ccc(Cl)cc1 [Example 42, Trans-1-(4-Chloro-phenyl)-3-(4-{2-[4-(4-fluoro-benzoyl)-piperidin-1-yl]-ethyl}-cyclohexyl)-1-methyl-urea]	352	11	146
CN(C)C(=O)N[C@H]1CC[C@H](CCN2CCC(C(=O)c3ccc(F)cc3)CC2)CC1 [Example 42A7, Trans-3-(4-{2-[4-(4-Fluoro-benzoyl)-piperidin-1-yl]-ethyl}-cyclohexyl)-1,1-dimethyl-urea]	176	26	86
COCCC(=O)N[C@H]1CC[C@H](CCN2CCC(F)(C(=O)c3ccc(F)cc3)CC2)CC1 [Example 50, N-trans (4-{2-[4-Fluoro-4-(4-fluoro-benzoyl)-piperidin-1-yl]-ethyl}-cyclohexyl)-3-methoxy-propionamide]	288	2	29
Cc1nc(-c2cccc(C(=O)N[C@H]3CC[C@H](CCN4CCC(O)(C(=O)c5ccc(F)cc5)CC4)CC3)c2)no1 [Example 57, N-trans (4-{2-[4-(4-Fluoro-benzoyl)-4-hydroxy-piperidin-1-yl]-ethyl}-cyclohexyl)-3-(5-methyl-[1,2,4]oxadiazol-3-yl)-benzamide]	1330	21	53
COCCC(=O)N[C@H]1CC[C@H](CCN2CCC(C(=O)c3ccc(F)cc3F)CC2)CC1 [Example 58, N-trans (4-{2-[4-(2,4-Difluoro-benzoyl)-piperidin-1-yl]-ethyl}-cyclohexyl)-3-methoxy-propionamide]	3540	80	19
O=C(CO)NC1CCC(CCN2CCC(C(=O)c3ccc(F)cc3F)CC2)CC1 (stereo not drawn) [Example 63A14, N-(4-{2-[4-(2,4-Difluoro-benzoyl)-piperidin-1-yl]-ethyl}-cyclohexyl)-2-hydroxy-acetamide]	8540	83	44
O=C(Nc1ccc(Cl)cc1)N[C@H]1CC[C@H](CCN2CCC(C(=O)c3ccc(F)cc3F)CC2)CC1 [Example 64, 1-(4-Chloro-phenyl)-3-trans (4-{2-[4-(2,4-difluoro-benzoyl)-piperidin-1-yl]-ethyl}-cyclohexyl)-urea]	4000	26	4
CC(=O)N[C@H]1CC[C@H](CCN2CCC(C(=O)c3ccccc3Cl)CC2)CC1 [Example 72, N-trans (4-{2-[4-(2-Chloro-benzoyl)-piperidin-1-yl]-ethyl}-cyclohexyl)-acetamide]	2130	26	39
Trans-1-(4-Chloro-phenyl)-3-(4-{2-[4-(4-fluoro-benzoyl)-piperidin-1-yl]-ethyl}-cyclohexyl)-urea [Example 39]	1840	3	2
Trans-1-(4-Ethoxy-phenyl)-3-(4-{2-[4-(4-fluoro-benzoyl)-piperidin-1-yl]-ethyl}-cyclohexyl)-urea [Example 40]	502	9	8
